Earlier results in US20070203190A1, “Hydroxylamines and derivatives for the inhibition of complement activation” (priority 2006, published 2007).

B1: CD59: blocks assembly of the MAC; proposed as a potential therapeutic agent (protein, UniProt P13987 26-102, looked up)
CD59 glycoprotein: LQCYNCPNPTADCKTAVNCSSDFDACLITKAGLQVYNKCWKFEHCNFNDVTTRLRENELTYYCCKKDLCNFNEQLEN

Experiments:
complement activation = conditions: in vivo animal models

| Molecule | suppression of complement activation (complement activation) | activity in vitro (MAC) |
| --- | --- | --- |
| sCR1: a recombinant form of complement receptor 1 known as soluble complement receptor 1 | suppress complement activation |  |
| B1 |  | limited activity |
